Assay results from US6022497A, “Photochromic six-membered heterocyclic-fused naphthopyrans” (PPG Industries Ohio, Inc., priority 1999, dated 2000).

Assays:
Format in all cases: physicochemical
[1] = lambda max (Vis) of compound in solution, UV/Visible spectrophotometer; conditions: solution in diethylene glycol dimethyl ether, approximately 0.5 milligram per milliliter
Method: The compound of Example 13 identified as 13A and the compound of Example 14 were dissolved in diethylene glycol dimethyl ether. The concentration of the resulting solution was approximately 0.5 milligram per milliliter. Each solution was tested in a UV/Visible Spectrophotometer to determine the lambda max (Vis).

[2] = photochromic response of test squares on an optical bench (sensitivity, saturation, bleach rate); conditions: for ΔOD @ Saturation: UV exposure continued for 15 minutes; for ΔOD @ Saturation / Sensitivity ΔOD/min: 72° F. (22.2° C.); for Sensitivity ΔOD/min: first five (5) seconds of UV exposure, expressed per minute; for Bleach Rate T 1/2: time to one half the highest absorbance at room temperature (72° F., 22.2° C.) after removal of activating light
Method: (§1) Testing was done with the photochromic compounds prepared in Examples 1-14 in the following manner. A quantity of each photochromic compound, except Compounds 13A and 14, calculated to yield a 1.5×10^-3 molal solution was added to a flask containing 50 grams of a monomer blend of 4 parts ethoxylated bisphenol A dimethacrylate (BPA 2EO DMA), 1 part poly(ethylene glycol) 600 dimethacrylate, and 0.033 weight percent 2,2'-azobis(2-methyl propionitrile) (AIBN). Each photochromic compound was dissolved into the monomer blend by stirring and gentle heating. After a clear solution was obtained, it was poured into a flat sheet mold having the interior dimensions of 2.2 mm×6 inches (15.24 cm)×6 inches (15.24 cm). The mold was sealed and placed in a horizontal air flow, programmable oven programmed to increase the temperature from 40° C. to 95° C. over a 5 hour interval, hold the temperature at 95° C. for 3 hours, lower it to 60° C. over a 2 hour interval and then hold at 60° C. for 16 hours. After the mold was opened, the polymer sheet was cut using a diamond blade saw into 2 inch (5.1 centimeters) test squares.
The photochromic test squares prepared in Part A were tested for photochromic response on an optical bench. Prior to testing on the optical bench, the photochromic test squares were exposed to 365 nanometer ultraviolet light for about 15 minutes to activate the photochromic compounds and then placed in a 76° C. oven for about 15 minutes to bleach or inactivate the photochromic compounds. The test squares were then cooled to room temperature, exposed to fluorescent room lighting for at least 2 hours and then kept covered for at least 2 hours prior to testing on an optical bench maintained at 72° F. (22.2° C.). The bench was fitted with a 150 watt Xenon arc lamp, a remote controlled shutter, a copper sulfate bath acting as a heat sink for the arc lamp, a Schott WG-320 nm cut-off filter which removes short wavelength radiation; neutral density filter(s) and a sample holder in which the square to be tested was inserted. The power output of the optical bench, i.e., the dosage of light that the sample lens would be exposed to, was calibrated with a photochromic test square used as a reference standard. […] The UV-A detector was placed into the sample holder and the light output was measured. Adjustments to the power output were made by increasing or decreasing the lamp wattage or by adding or removing neutral density filters in the light path.
A monitoring, collimated beam of light from a tungsten lamp was passed through the square at a small angle (approximately 30°) normal to the square. After passing through the square, the light from the tungsten lamp was directed to a detector through Spectral Energy Corp. GM-200 monochromator set at the previously determined visible lambda max of the photochromic compound being measured. The output signals from the detector were processed by a radiometer.
Change in optical density (ΔOD) was determined by inserting a test square in the bleached state into the sample holder, adjusting the transmittance scale to 100%, opening the shutter from the Xenon lamp to provide ultraviolet radiation to change the test square from the bleached state to an activated (i.e., darkened) state, measuring the transmittance in the activated state, and calculating the change in optical density according to the formula: ΔOD=log(100/% Ta), where % Ta is the percent transmittance in the activated state and the logarithm is to the base 10.
The ΔOD/min, which represents the sensitivity of the photochromic compound's response to UV light, was measured over the first five (5) seconds of UV exposure, then expressed on a per minute basis. The saturation optical density (ΔOD@ Saturation) was taken under identical conditions as the ΔOD/min, except UV exposure was continued for 15 minutes. […]

[3] = lambda max (Vis) of photochromic test square polymerizates, UV-Visible spectrophotometer; conditions: activated (colored) form in polymer test square (BPA 2EO DMA / poly(ethylene glycol) 600 dimethacrylate), 1.5×10^-3 molal
Method: as §1
The ΔOD/min, which represents the sensitivity of the photochromic compound's response to UV light, was measured over the first five (5) seconds of UV exposure, then expressed on a per minute basis. The saturation optical density (ΔOD@ Saturation) was taken under identical conditions as the ΔOD/min, except UV exposure was continued for 15 minutes. The lambda max (Vis) is the wavelength in nanometers (nm) in the visible spectrum at which the maximum absorption of the activated (colored) form of the photochromic compound in a test square occurs. The lambda max (Vis) wavelength was determined by testing the photochromic test square polymerizates of Part A in a Varian Cary 3 UV-Visible spectrophotometer. The Bleach Rate (T 1/2) is the time interval in seconds for the absorbance of the activated form of the photochromic compound in the test squares to reach one half the highest absorbance at room temperature (72° F., 22.2° C.) after removal of the source of activating light.

O=C1OC(c2ccccc2)(c2ccccc2)Nc2c1c1c(c3ccccc23)OC(c2ccccc2)(c2ccccc2)C=C1 [Example 13A, 2,2,7,7-tetraphenyl-4-oxo-2,3,4,7-tetrahydro-1H-[1,3]oxazino[5',4':3,4]naphtho[1,2-b]pyran]
lambda max (Vis) [1]: 471 nanometers

CC(C)CC1OC(=O)c2c3c(c4ccccc4c2O1)OC(c1ccccc1)(c1ccccc1)C=C3 (centres unmarked) [Example 6, 7,7-diphenyl-2-(2-methylpropyl)-4-oxo-4H-7H-[1,3]dioxino[5',4':3,4]naphtho[1,2-b]pyran]
ΔOD @ Saturation [2]: 1.72 | Sensitivity ΔOD/min [2]: 0.64 ΔOD/min | Bleach Rate T 1/2 [2]: 4 min | lambda max (Vis) [3]: 475 nanometers

CC1(C)Cc2c(c3c(c4ccccc24)OC(c2ccccc2)(c2ccccc2)C=C3)C(=O)O1 [Example 14]
lambda max (Vis) [1]: 460 nanometers

CCC1OC(=O)c2c3c(c4ccccc4c2O1)OC(c1ccccc1)(c1ccccc1)C=C3 (centres unmarked) [Example 4, 7,7-diphenyl-2-ethyl-4-oxo-4H-7H-[1,3]dioxino[5',4':3,4]naphtho[1,2-b]pyran]
ΔOD @ Saturation [2]: 1.71 | Sensitivity ΔOD/min [2]: 0.67 ΔOD/min | Bleach Rate T 1/2 [2]: 4.13 min | lambda max (Vis) [3]: 474 nanometers

O=C1OC(c2ccccc2)Oc2c1c1c(c3ccccc23)OC(c2ccccc2)(c2ccccc2)C=C1 (centres unmarked) [Example 7, 2,7,7-triphenyl-4-oxo-4H-7H-[1,3]dioxino[5',4':3,4]naphtho[1,2-b]pyran]
ΔOD @ Saturation [2]: 1.46 | Sensitivity ΔOD/min [2]: 0.60 ΔOD/min | Bleach Rate T 1/2 [2]: 4.13 min | lambda max (Vis) [3]: 476 nanometers

CCCCCCn1c(=O)oc2c(c3c(c4ccccc42)OC(c2ccccc2)(c2ccccc2)C=C3)c1=O [Example 11, 3-hexyl-7,7-diphenyl-2,4-dioxo-2,3,4,7-tetrahydro[1,3]oxazino[5',6':3,4]naphtho[1,2-b]pyran]
ΔOD @ Saturation [2]: 0.41 | Sensitivity ΔOD/min [2]: 0.46 ΔOD/min | Bleach Rate T 1/2 [2]: 0.883 min | lambda max (Vis) [3]: 471 nanometers

COc1ccc(C2(c3ccc(OC)cc3)C=Cc3c4c(c5ccccc5c3O2)OCOC4=O)cc1 [Example 2, 7,7-di(4-methoxyphenyl)-4-oxo-4H-7H-[1,3]dioxino[5',4':3,4]naphtho[1,2-b]pyran]
ΔOD @ Saturation [2]: 0.67 | Sensitivity ΔOD/min [2]: 0.74 ΔOD/min | Bleach Rate T 1/2 [2]: 0.85 min | lambda max (Vis) [3]: 510 nanometers

CCCCCC1OC(=O)c2c3c(c4ccccc4c2O1)OC(c1ccccc1)(c1ccccc1)C=C3 (centres unmarked) [Example 5, 7,7-diphenyl-2-pentyl-4-oxo-4H-7H-[1,3]dioxino[5',4':3,4]naphtho[1,2-b]pyran]
ΔOD @ Saturation [2]: 1.74 | Sensitivity ΔOD/min [2]: 0.67 ΔOD/min | Bleach Rate T 1/2 [2]: 4.23 min | lambda max (Vis) [3]: 478 nanometers

C=C(C)C(=O)OCCn1c(=O)oc2c(c3c(c4ccccc42)OC(c2ccccc2)(c2ccccc2)C=C3)c1=O [Example 12, 3-(2-methacryloyloxyethyl)-7,7-diphenyl-2,4-dioxo-2,3,4,7-tetrahydro[1,3]oxazino[5',6':3,4]naphtho[1,2-b]pyran]
ΔOD @ Saturation [2]: 0.32 | Sensitivity ΔOD/min [2]: 0.26 ΔOD/min | Bleach Rate T 1/2 [2]: 2.33 min | lambda max (Vis) [3]: 467 nanometers

Cn1c(=O)oc2c(c3c(c4ccccc42)OC(c2ccccc2)(c2ccccc2)C=C3)c1=O [Example 9, 3-methyl-7,7-diphenyl-2,4-dioxo-2,3,4,7-tetrahydro[1,3]oxazino[5',6':3,4]naphtho[1,2-b]pyran]
ΔOD @ Saturation [2]: 0.40 | Sensitivity ΔOD/min [2]: 0.41 ΔOD/min | Bleach Rate T 1/2 [2]: 0.85 min | lambda max (Vis) [3]: 469 nanometers

CCCCCC1OC(=O)c2c3c(c4ccccc4c2O1)OC(c1ccccc1)(c1ccc(OC)cc1)C=C3 (centres unmarked) [Example 3, 7-(4-methoxyphenyl)-7-phenyl-2-pentyl-4-oxo-4H-7H-[1,3]dioxino[5',4':3,4]naphtho[1,2-b]pyran]
ΔOD @ Saturation [2]: 1.28 | Sensitivity ΔOD/min [2]: 0.75 ΔOD/min | Bleach Rate T 1/2 [2]: 1.95 min | lambda max (Vis) [3]: 496 nanometers

CC(c1ccccc1)C1OC(=O)c2c3c(c4ccccc4c2O1)OC(c1ccccc1)(c1ccccc1)C=C3 (centres unmarked) [Example 8, 7,7-diphenyl-2-(1-phenylethyl)-4-oxo-4H-7H-[1,3]dioxino[5',4':3,4]naphtho[1,2-b]pyran]
ΔOD @ Saturation [2]: 1.58 | Sensitivity ΔOD/min [2]: 0.63 ΔOD/min | Bleach Rate T 1/2 [2]: 4.18 min | lambda max (Vis) [3]: 475 nanometers

O=C1OCOc2c1c1c(c3ccccc23)OC(c2ccccc2)(c2ccccc2)C=C1 [Example 1, 7,7-diphenyl-4-oxo-4H-7H-[1,3]dioxino[5'4':3,4]naphtho[1,2-b]pyran]
ΔOD @ Saturation [2]: 1.89 | Sensitivity ΔOD/min [2]: 0.76 ΔOD/min | Bleach Rate T 1/2 [2]: 3.67 min | lambda max (Vis) [3]: 472 nanometers

CCOC(=O)CCn1c(=O)oc2c(c3c(c4ccccc42)OC(c2ccccc2)(c2ccccc2)C=C3)c1=O [Example 10, 3-(2-ethoxycarbonylethyl)-7,7-diphenyl-2,4-dioxo-2,3,4,7-tetrahydro[1,3]oxazino[5',6':3,4]naphtho[1,2-b]pyran]
ΔOD @ Saturation [2]: 0.38 | Sensitivity ΔOD/min [2]: 0.44 ΔOD/min | Bleach Rate T 1/2 [2]: 0.7 min | lambda max (Vis) [3]: 468 nanometers
